Data from patent US20240091210A1, “USE OF 5-[[4-[2-[5-ACETYLPYRIDIN-2-YL]ETHOXY]BENZYL]-1,3-THIAZOLIDINE-2,4-DIONE AND ITS SALTS” (Minoryx Therapeutics S.L., priority 2018, published 2024).
Like-named read-outs stand apart in the source and are kept apart here.

Assays:
[1] = Minimal effective exposure in mice (dose calculation); assay type: in vivo; conditions: said to correspond to 50 mg/kg
Protocol: It can be assumed that dose-exposure is linear. The minimal effective exposure of 5-[[4-[2-[5-(1-hydroxyethyl)pyridin-2-yl]ethoxy]phenyl]methyl]-1,3-thiazolidine-2,4-dione hydrochloride is 130 μg·h/mL in mice which corresponds to administration of 50 mg/kg of 5-[[4-[2-[5-(1-hydroxyethyl)pyridin-2-yl]ethoxy]phenyl]methyl]-1,3-thiazolidine-2,4-dione hydrochloride to mice. It follows that the dose to achieve this exposure in mice is […].

[2] = Multiple ascending dose (MAD) study in human subjects; assay type: in vivo; conditions: for Cmax: in vivo, steady state day 8, human, read-out: mean Cmax ss
[3] = test system: MDA MB231 KO cells; assay: Seahorse oxygen consumption rate (OCR), MDA MB231 KO cells (MPC2 deleted); assay type: cell-based; conditions: MPC activity genetically deleted
Protocol: (§1) To determine whether MIN-102 has any effect on pyruvate-mediated mitochondrial respiration, the extracellular flux analyzer Seahorse was used as described in Compan et al.. Seahorse experiments were performed in the following cell lines: HeLa (Cervix cancer cells), A549 (lung cancer cells), wild type MDA MB 231, and MDA MB 231 in which MPC2 has been deleted, leading to inactivation of the MPC (MDA MB231 KO). MDA MB231 cells are epithelial breast cancer cells. Cells were incubated with increasing concentrations of the compounds for one hour at 37° C. before oxygen consumption rate (OCR) measurements. The Seahorse analyzer allowed to measure basal and maximal respiration measured upon depolarization with 1 μM CCCP. […] The KO cells have been deleted of the MPC2 gene and therefore they display no MPC activity. The top panel show a representative experiment of either wild type (WT) or KO cell lines. […] OCR values are expressed as ratios of OCR in the presence of different concentrations of the tested compound over the OCR in PBS alone.

[4] = test system: MCD diet NASH mouse model; assay: Methionine Choline Deficient (MCD) diet NASH mouse model; assay type: in vivo, C57BL6/J male mice; conditions: 62.5 mg/kg BID oral, 7 weeks
Protocol: The preventive effects of MIN-102 was evaluated in a 7-week Methionine Choline Deficient (MCD) diet NASH mouse model (Verdelho Machado et al.). After the acclimation period, C57BL6/J male mice (n=20) were weighed and randomized into 2 homogenous treatment groups based on body weight (n=10/group), put on a MCD diet, and treated BID orally with vehicle or MIN-102 for 7 weeks. MIN-102 was dosed 62.5 mg/kg BID orally by gavage. After the acclimation period, C57BL6/J male mice (n=20) were weighed and randomized into 2 homogenous treatment groups based on body weight (n=10/group), put on a MCD diet, and treated BID orally with a vehicle or MIN-102 (125 mg/Kg/day) for 7 weeks. Body weight was measured 3 times/week until the end of the experimental phase. At 7 weeks of diet/treatment, mice were weighed and treated at ˜08:00 am in the morning, then bled (maximal volume/EDTA) at ˜1:00 pm. Plasma was then immediately isolated and stored at −80° C. prior to assay plasma ALT and AST. The plasma volume left over was stored at −80° C. for eventual additional analysis. After blood collection, the mice were sacrificed by cervical dislocation under isoflurane anesthesia and exsanguinated with sterile saline. A NAFLD scoring system (NAS) adapted from Kleiner et al. (Hepatology. 41(6):1313-1321 (2005)) using the criteria described in the Table 1 below: Several other histopathological observations described in clinical human cases and originally reported in the NAS scoring system published by Kleiner et al. were not observed in this animal study, such as lipogranuloma, acidophil bodies, megamitochondria, and pigmented macrophages. Therefore, it was elected not to include them in the scoring system described above. An individual mouse NAS total score was calculated for each animal by summing up the score for (1) hepatocellular steatosis, (2) liver inflammation, (3) lobular fibrosis, and (4) hepatocyte ballooning. Histology analysis was performed (oil red O, H&E and Sirius Red staining) for NAFLD scoring system (NAS) for liver steatosis, inflammation, fibrosis and hepatocyte ballooning.

[5] = test system: adiponectin; assay: Plasma adiponectin levels in rats (ELISA), measure of PPAR gamma engagement; assay type: in vivo, Sprague Dawley rats; conditions: 54 mg/Kg/day for 7 days, plasma 1 h after last dose, vs vehicle
Protocol: Evaluation of effect of MIN-102 on adiponectin was performed in Sprague Dawley wild type rats as a measure of PPAR gamma engagement. The rats were treated for 7 days with increasing doses of MIN-102 at 54 mg/Kg/day. Plasma were obtained at 1 h after the last MIN-102 administration. Adiponectin levels were measured by ELISA. Results were represented as mean+standard error of the mean of n=8. Data were analyzed by Kruskal-Wallis followed by the Dunn post-hoc test versus the vehicle group (**** p<0.0001).

[6] = test system: wild type MDA MB231 cells; assay: Seahorse oxygen consumption rate (OCR), wild type MDA MB231 cells; assay type: cell-based
Protocol: as §1

CC(O)c1ccc(CCOc2ccc(CC3SC(=O)NC3=O)cc2)nc1.Cl (racemic) [MIN-102, 5-[[4-[2-[5-(1-hydroxyethyl)pyridin-2-yl]ethoxy]phenyl]methyl]-1,3-thiazolidine-2,4-dione hydrochloride]
minimal effective exposure [1]: 130 µg·h/mL
change in clearance with time ([2]; 135 mg and 270 mg, human): no change in clearance with time
Cmax ([2]; 135 mg): 9490 ng/mL
Cmax ([2]; 270 mg): 17200 ng/mL
Cmin ss associated with the target AUCss ([2]; target AUCss 200 μg·h/mL, line of best fit of day 8 Cmin ss vs AUCss): 5716 ng/mL
effect on oxygen consumption [3]: does not inhibit oxygen consumption
hepatic cholesterol levels [4]: did not show a change
liver inflammation [4]: total disappearance
body weight loss ([4]; day 14 to day 50, vs vehicle): less severe decline in body weight loss
oil red o staining % ([4]; vs vehicle, p<0.001): extremely low
reduction in hepatic triglycerides levels ([4]; vs vehicle, p<0.001): 92%
steatosis score ([4]; vs vehicle, p<0.001): blunted
reduction of plasma ALT level ([4]; vs vehicle, p<0.01): 78%
reduction of plasma AST level ([4]; vs vehicle, p<0.01): 55%
mean NAS group score ([4]; vehicle 3.40±0.3, p<0.001): 0.44±01
plasma adiponectin levels [5]: significantly increased
effect on oxygen consumption [6]: inhibits oxygen consumption in a MPC dependent manner
